The test system of test [1] is B. fragilis A 21916. Nature of the test: In vitro activity against anaerobes (MIC), two-fold serial agar dilution, GAM agar. To be noted: Bacteroides fragilis, A21916, Gn, Beta-Lactamase(-). It counts as cell-based.
The subject of test [2] is B. fragilis CUH-108. The description is as above. The format is cell-based. To be noted: Bacteroides fragilis, CUH108, Gn, Beta-Lactamase(+), Clindamycin-resistant. On the procedure: In vitro activity against anaerobic bacteria was determined on eight strains of B. fragilis by two-fold serial agar dilution method in GAM agar.
Test [3] relates to B. fragilis A 22021. Described as above. The format is cell-based. To be noted: Bacteroides fragilis, A22021, Gn, Beta-Lactamase(-).
Test [4] concerns PCresistant S. aureus. The test is described as follows: MIC, two-fold serial agar dilution, Mueller-Hinton agar (geometric mean, group Gp-Ib). To be noted: Staphylococcus aureus, penicillin-resistant S. aureus, 5 strains. It counts as cell-based. On the procedure: (§1) For a primary evaluation of some representative compounds of this invention, minimum inhibitory concentrations (MIC's) were determined against 32 strains of test organisms by two-fold serial agar dilution method in Mueller-Hinton agar.
GpIb: PCresistant S. aureus

Test [5] has as its system Cephalothin (CET)sensitive E. coli(2), Kl. pneumoniae(1) and Pr. mirabilis(2). The test is described as follows: MIC, two-fold serial agar dilution, Mueller-Hinton agar (geometric mean, group Gn-Ia). The format is cell-based. As to conditions: 5 strains. On the procedure:
as §1
GnIa: Cephalothin (CET)sensitive E. coli(2)*, Kl. pneumoniae(1) and Pr.

In test [6] the test system is Penicillin (PC)sensitive S. (5 strains). Nature of the test: MIC, two-fold serial agar dilution, Mueller-Hinton agar (geometric mean, group Gp-Ia). To be noted: Staphylococcus aureus. It counts as cell-based, S. aureus. On the procedure:
as §1
Gp-Ia: Penicillin (PC)sensitive S.

In test [7] the test system is B. fragilis A 22693. Nature of the test: In vitro activity against anaerobes (MIC), two-fold serial agar dilution, GAM agar. It counts as cell-based. As to conditions: Bacteroides fragilis, A22693, Gn, Beta-Lactamase(-).
Test [8] has as its system P. aeruginosa 9843A. Nature of the test: MIC against the infecting organism (Table 2). To be noted: Pseudomonas aeruginosa.
Test [9] concerns S. aureus Smith. As to conditions: Staphylococcus aureus, in Mus musculus, im, read-out: PD50.
In test [10] the test system is B. fragilis A 22533. The test is described as follows: In vitro activity against anaerobes (MIC), two-fold serial agar dilution, GAM agar. The format is cell-based. To be noted: Bacteroides fragilis, A22533, Gn, Beta-Lactamase(+).
The test system of test [11] is CETresistant E. coli(3), and Kl. pneumoniae(2). Nature of the test: MIC, two-fold serial agar dilution, Mueller-Hinton agar (geometric mean, group Gn-Ib). It counts as cell-based. To be noted: Escherichia coli, read-out: Geometric Mean of MIC, Gn-Ib. On the procedure: as §1
GnIb: CETresistant E. coli(3), and Kl. pneumoniae(2)

For test [12], the system named is B. fragilis A 22053. Nature of the test: In vitro activity against anaerobes (MIC), two-fold serial agar dilution, GAM agar. As to conditions: Bacteroides fragilis, A22053, Gn, Beta-Lactamase(-). The format is cell-based.
For test [13], the system named is B. fragilis A 22695. Described as above. The format is cell-based. As to conditions: Bacteroides fragilis, A22695, Gn, Beta-Lactamase(+).
In test [14] the test system is B. fragilis A 22534. The test is described as above. The format is cell-based. As to conditions: Bacteroides fragilis, A22534, Gn, Beta-Lactamase(+).
Test [15] deals with C. perfringens A9635. The test is described as follows: microbe, parasite or virus in culture. It counts as cell-based. To be noted: Clostridium perfringens.
Test [16] relates to E. coli Juhl. As to conditions: Escherichia coli, in Mus musculus, im, read-out: PD50.
Test [17] relates to C. difficile A 21675. The test is described as follows: In vitro activity against anaerobes (MIC). The format is cell-based. To be noted: Clostridioides difficile, A21675, Gp, Clindamycin-resistant.
Test [18] relates to M. morganii(1), Ent. cloacae(2), and Ser. marcescens(2). The test is described as follows: MIC, two-fold serial agar dilution, Mueller-Hinton agar (geometric mean, group Gn-II). It counts as cell-based. As to conditions: 5 strains. On the procedure:
as §1
GnII: M. morganii(1), Ent. cloacae(2), and Ser. marcescens(2)

Test [19] relates to P. acnes A 21933. Nature of the test: In vitro activity against anaerobes (MIC). It counts as cell-based. To be noted: Cutibacterium acnes, A21933, Gp.
Test [20] has as its system E. coli Juhl. The test is described as follows: MIC against the infecting organism (Table 2). As to conditions: Escherichia coli.
In test [21] the test system is Ps. aeruginosa (7). Nature of the test: MIC, two-fold serial agar dilution, Mueller-Hinton agar (geometric mean, group Gn-III). The format is cell-based. To be noted: Pseudomonas aeruginosa, 7 strains. The procedure: as §1
GnIII: Ps. aeruginosa (7)

The subject of test [22] is S. aureus Smith. Nature of the test: MIC against the infecting organism (Table 2). As to conditions: Staphylococcus aureus.

Structures are written as SMILES. Converted amounts (≈) assume the structure as drawn.

On to `CO/N=C(\C(=O)NC1C(=O)N2C(C(=O)O)=C(/C=C/COC(=O)c3ccc(O)c(O)c3)CS[C@H]12)c1nsc(N)n1` (stereo partly drawn) [Ib, 7-[(Z)-2-(5-Amino-1,2,4-thiadiazol-3-yl)-2-methoxyiminoacetamido]-3-[(E)-3-(3,4-dihydroxybenzoyloxy)-1-propen-1-yl]-3-cephem-4carboxylic acid], for which the MIC in test [1] was 12.5 mg/L (≈ 21.7 µM); in test [2], above 50 mg/L; in test [3] it was 0.2 mg/L (≈ 0.347 µM); in test [4], 3.1 mg/L (≈ 5.38 µM); in test [5], 0.022 mg/L (≈ 0.0382 µM); in [6] it was 3.4 mg/L (≈ 5.9 µM). The MIC in test [7] is 3.1 mg/L (≈ 5.38 µM); in test [8], 0.4 mg/L (≈ 0.694 µM); in test [10] it was above 50 mg/L; in test [11], 0.026 mg/L (≈ 0.0451 µM); in test [12] it was 3.1 mg/L (≈ 5.38 µM); in test [13], 25 mg/L (≈ 43.4 µM). The MIC in test [14] was above 50 mg/L; in test [15], 0.4 mg/L (≈ 0.694 µM); in test [17] it was 25 mg/L (≈ 43.4 µM); in test [18], 0.53 mg/L (≈ 0.919 µM); in test [19] it was 0.8 mg/L (≈ 1.39 µM); in test [20], 0.1 mg/L (≈ 0.173 µM). The molecule further returned an MIC in [21] of 0.49 mg/L (≈ 0.85 µM). Further, the figures for the ED50 in [9] and in test [16] were 0.68 mg/kg and 0.037 mg/kg, respectively.

Consider `CO/N=C(\C(=O)NC1C(=O)N2C(C(=O)O)=C(/C=C/COC(=O)Nc3ccc(O)c(O)c3)CSC12)c1csc(N)n1` (stereo not drawn) [Ie, 7-[(Z)-2-(2-Aminothiazol-4-yl)-2-methoxyiminoacetamido]-3-[(E)-3-(N-3,4-dihyroxyphenyl)carbamoyloxy-1-propen-1-yl]-3-cephem-4-carboxylic acid], for which the MIC in test [1] was determined as 6.3 mg/L (≈ 10.7 µM); in [2], 100 mg/L (≈ 169 µM); in test [3], 0.4 mg/L (≈ 0.677 µM); in test [4], 7.2 mg/L (≈ 12.2 µM); in [5] it was 0.23 mg/L (≈ 0.389 µM); in test [6], 6.3 mg/L (≈ 10.7 µM). Besides, the MIC in test [7] is 3.1 mg/L (≈ 5.25 µM); in test [10], above 100 mg/L; in test [11], 0.46 mg/L (≈ 0.779 µM); in test [12] it was 3.1 mg/L (≈ 5.25 µM); in [13], 25 mg/L (≈ 42.3 µM); in [14], above 100 mg/L. The MIC in [15] came out at 1.6 mg/L (≈ 2.71 µM); in test [17] it was 50 mg/L (≈ 84.7 µM); in test [18], 3.6 mg/L (≈ 6.1 µM); in [19] it was 1.6 mg/L (≈ 2.71 µM); in test [21], 50 mg/L (≈ 84.7 µM).

Turning to `CC(C)(O/N=C(\C(=O)NC1C(=O)N2C(C(=O)O)=C(/C=C/COC(=O)c3ccc(O)c(O)c3)CS[C@H]12)c1csc(N)n1)C(=O)O` (stereo partly drawn) [Ic, 7-[(Z)-2-(2-Aminothiazol-4-yl)-2-(1-carboxy-1-methylethoxyimino)acetamido]-3-[(E)-3-(3,4-dihydroxybenzoyloxy)-1-propen-1yl]-3-cephem-4-carboxylic acid], the MIC in test [1] is 0.8 mg/L (≈ 1.24 µM); in test [2] it was 12.5 mg/L (≈ 19.3 µM); in [3] it was 0.2 mg/L (≈ 0.309 µM); in [4], 13 mg/L (≈ 20.1 µM); in [5] it was 0.022 mg/L (≈ 0.034 µM); in test [6] it was 8.3 mg/L (≈ 12.8 µM). The MIC in test [7] is 3.1 mg/L (≈ 4.79 µM); in test [8], 0.2 mg/L (≈ 0.309 µM); in [10] it was above 100 mg/L; in [11], 0.019 mg/L (≈ 0.0293 µM); in [12], 0.8 mg/L (≈ 1.24 µM); in [13] it was 3.1 mg/L (≈ 4.79 µM). For the same molecule, the MIC in [14] is above 100 mg/L; in test [15], 0.4 mg/L (≈ 0.618 µM); in test [22] it was 12.5 mg/L (≈ 19.3 µM); in test [17], 50 mg/L (≈ 77.2 µM); in test [18], 0.17 mg/L (≈ 0.262 µM); in [19] it was 0.8 mg/L (≈ 1.24 µM). The MIC worked out at 0.2 mg/L (≈ 0.309 µM) in test [20] and 0.82 mg/L (≈ 1.27 µM) in [21]. For the same molecule, the ED50 was determined as 2.2 mg/kg in test [9] and 0.062 mg/kg in [16].

The values are drawn from patent publication US5143911A, “Antibiotic C-3 di-hydroxyphenyl substituted cephalosporin compounds, compositions and method of use thereof” (Bristol-Myers Squibb Company, priority 1990, dated 1992).
